Tests used:
Assay type in all cases: in vivo
[1] = system: black-grass; assay: Test Example 3: weedkilling efficacy through soil treatment; H: black-grass; conditions: treatment dosage 315 g/ha
Procedure, shortened: (§1)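 Crop and weed responses were judged three weeks after a uniform surface spray of the water-diluted emulsion at the given g/ha rate. Seeds sat beneath about 1.5 cm of sterilized diluvial soil, and boxes stood in a greenhouse at 25 to 30° C.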

[2] = system: Italian ryegrass; assay: Test Example 3: weedkilling efficacy through soil treatment; I: Italian ryegrass; conditions: treatment dosage 315 g/ha
Procedure, shortened: as §1

[3] = system: wheat; assay: Test Example 4: foliar treatment, effect on crop; e: wheat; conditions: treatment dosage 315 g/ha
Procedure, shortened: (§2)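 Seeds are spot-sown into sterilized diluvial soil and covered with about 1.5 cm of soil. After 14 days' greenhouse growth at 25 to 30° C, plants are sprayed on stems and leaves with diluted emulsion at the stated g/ha rate, then scored at 3 weeks.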

[4] = system: wild oat; assay: Test Example 4: weedkilling efficacy by foliar treatment; G: wild oat; conditions: treatment dosage 315 g/ha
Procedure, shortened: as §2

[5] = system: fig-leafed goosefoot; assay: Test Example 4: weedkilling efficacy by foliar treatment; M: fig-leafed goosefoot; conditions: treatment dosage 315 g/ha
Procedure, shortened: as §2

[6] = system: chickweed; assay: Test Example 3: weedkilling efficacy through soil treatment; N: chickweed; conditions: treatment dosage 315 g/ha
Procedure, shortened: as §1

[7] = system: Indian mallow; assay: Test Example 3: weedkilling efficacy through soil treatment; K: Indian mallow; conditions: treatment dosage 315 g/ha
Procedure, shortened: as §1

[8] = system: beet; assay: Test Example 3: soil treatment, effect on crop; f: beet; conditions: treatment dosage 315 g/ha
Procedure, shortened: as §1

[9] = system: soybean; assay: Test Example 4: foliar treatment, effect on crop; d: soybean; conditions: treatment dosage 315 g/ha
Procedure, shortened: as §2

[10] = system: wild oat; assay: Test Example 3: weedkilling efficacy through soil treatment; G: wild oat; conditions: treatment dosage 315 g/ha
Procedure, shortened: as §1

[11] = system: redroot pigweed; assay: Test Example 4: weedkilling efficacy by foliar treatment; L: redroot pigweed; conditions: treatment dosage 315 g/ha
Procedure, shortened: as §2

[12] = system: barnyard grass; assay: Test Example 1: weedkilling efficacy, preemergent weed treatment in the submerged state; A: barnyard grass; conditions: treatment dosage 252 g/ha
Procedure, shortened: (§3)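 Pre-emergence application onto floodwater (4 cm, alluvial soil) on the day of sowing, dose expressed as g/ha from diluted emulsion formulation. Weeds sown with 2.5-leaf transplanted rice as crop; plants held at 25–30 °C in greenhouse and scored against assessment criteria after 3 weeks.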

[13] = system: chickweed; assay: Test Example 4: weedkilling efficacy by foliar treatment; N: chickweed; conditions: treatment dosage 315 g/ha
Procedure, shortened: as §2

[14] = system: transplanted rice; assay: Test Example 1: preemergent weed treatment in the submerged state, effect on crop; a: transplanted rice; conditions: treatment dosage 252 g/ha
Procedure, shortened: as §3

[15] = system: crabgrass; assay: Test Example 4: weedkilling efficacy by foliar treatment; D: crabgrass; conditions: treatment dosage 315 g/ha
Procedure, shortened: as §2

[16] = system: bulrush; assay: Test Example 1: weedkilling efficacy, preemergent weed treatment in the submerged state; B: bulrush; conditions: treatment dosage 252 g/ha
Procedure, shortened: as §3

[17] = system: beet; assay: Test Example 4: foliar treatment, effect on crop; f: beet; conditions: treatment dosage 315 g/ha
Procedure, shortened: as §2

[18] = system: crabgrass; assay: Test Example 3: weedkilling efficacy through soil treatment; D: crabgrass; conditions: treatment dosage 315 g/ha
Procedure, shortened: as §1

[19] = system: corn; assay: Test Example 4: foliar treatment, effect on crop; c: corn; conditions: treatment dosage 315 g/ha
Procedure, shortened: as §2

[20] = system: Italian ryegrass; assay: Test Example 4: weedkilling efficacy by foliar treatment; I: Italian ryegrass; conditions: treatment dosage 315 g/ha
Procedure, shortened: as §2

[21] = system: black-grass; assay: Test Example 4: weedkilling efficacy by foliar treatment; H: black-grass; conditions: treatment dosage 315 g/ha
Procedure, shortened: as §2

[22] = system: fig-leafed goosefoot; assay: Test Example 3: weedkilling efficacy through soil treatment; M: fig-leafed goosefoot; conditions: treatment dosage 315 g/ha
Procedure, shortened: as §1

[23] = system: bulrush; assay: Test Example 2: weedkilling efficacy, growth period weed treatment in the submerged state; B: bulrush; conditions: treatment dosage 252 g/ha
Procedure, shortened: (§4)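 Weeds treated at the 1-2 leaf stage by application of diluted emulsion onto floodwater (4 cm depth, alluvial soil) at specified g/ha. Grown in greenhouse at 25 to 30° C; herbicidal effect rated three weeks after treatment.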

[24] = system: catchweed; assay: Test Example 4: weedkilling efficacy by foliar treatment; O: catchweed; conditions: treatment dosage 315 g/ha
Procedure, shortened: as §2

[25] = system: oval-leafed pondweed; assay: Test Example 1: weedkilling efficacy, preemergent weed treatment in the submerged state; C: oval-leafed pondweed; conditions: treatment dosage 252 g/ha
Procedure, shortened: as §3

[26] = system: wheat; assay: Test Example 3: soil treatment, effect on crop; e: wheat; conditions: treatment dosage 315 g/ha
Procedure, shortened: as §1

[27] = system: birds-eye speedwell; assay: Test Example 4: weedkilling efficacy by foliar treatment; p: birds-eye speedwell; conditions: treatment dosage 315 g/ha
Procedure, shortened: as §2

[28] = system: directly sown rice; assay: Test Example 4: foliar treatment, effect on crop; b: directly sown rice; conditions: treatment dosage 315 g/ha
Procedure, shortened: as §2

[29] = system: redroot pigweed; assay: Test Example 3: weedkilling efficacy through soil treatment; L: redroot pigweed; conditions: treatment dosage 315 g/ha
Procedure, shortened: as §1

[30] = system: corn; assay: Test Example 3: soil treatment, effect on crop; c: corn; conditions: treatment dosage 315 g/ha
Procedure, shortened: as §1

[31] = system: Indian mallow; assay: Test Example 4: weedkilling efficacy by foliar treatment; K: Indian mallow; conditions: treatment dosage 315 g/ha
Procedure, shortened: as §2

[32] = system: oval-leafed pondweed; assay: Test Example 2: weedkilling efficacy, growth period weed treatment in the submerged state; C: oval-leafed pondweed; conditions: treatment dosage 252 g/ha
Procedure, shortened: as §4

[33] = system: barnyard grass; assay: Test Example 2: weedkilling efficacy, growth period weed treatment in the submerged state; A: barnyard grass; conditions: treatment dosage 252 g/ha
Procedure, shortened: as §4

[34] = system: green foxtail; assay: Test Example 4: weedkilling efficacy by foliar treatment; E: green foxtail; conditions: treatment dosage 315 g/ha
Procedure, shortened: as §2

[35] = system: green foxtail; assay: Test Example 3: weedkilling efficacy through soil treatment; E: green foxtail; conditions: treatment dosage 315 g/ha
Procedure, shortened: as §1

[36] = system: soybean; assay: Test Example 3: soil treatment, effect on crop; d: soybean; conditions: treatment dosage 315 g/ha
Procedure, shortened: as §1

[37] = system: birds-eye speedwell; assay: Test Example 3: weedkilling efficacy through soil treatment; p: birds-eye speedwell; conditions: treatment dosage 315 g/ha
Procedure, shortened: as §1

Structure (SMILES)	H (black-grass) weedkilling efficacy grade [1]	I (Italian ryegrass) weedkilling efficacy grade [2]	e (wheat) effect on crop grade [3]	G (wild oat) weedkilling efficacy grade [4]	M (fig-leafed goosefoot) weedkilling efficacy grade [5]	N (chickweed) weedkilling efficacy grade [6]	K (Indian mallow) weedkilling efficacy grade [7]	f (beet) effect on crop grade [8]	d (soybean) effect on crop grade [9]	G (wild oat) weedkilling efficacy grade [10]	L (redroot pigweed) weedkilling efficacy grade [11]	A (barnyard grass) weedkilling efficacy grade [12]	N (chickweed) weedkilling efficacy grade [13]	a (transplanted rice) effect on crop grade [14]	D (crabgrass) weedkilling efficacy grade [15]	B (bulrush) weedkilling efficacy grade [16]	D (crabgrass) weedkilling efficacy grade [18]	c (corn) effect on crop grade [19]	I (Italian ryegrass) weedkilling efficacy grade [20]	H (black-grass) weedkilling efficacy grade [21]	also measured
CC1=C(c2ccccc2)C(=O)N(C(C)(C)C(=O)Nc2cncc(Cl)c2)CO1 [B-3-02]	5 (weed kill ratio 90% or more, (practically complete withering))	5 (weed kill ratio 90% or more, (practically complete withering))	3 (weed kill ratio 40% or more, less than 70%)	5 (weed kill ratio 90% or more, (practically complete withering))	2 (weed kill ratio 20% or more, less than 40%)	4 (weed kill ratio 70% or more, less than 90%)	3 (weed kill ratio 40% or more, less than 70%)	4 (weed kill ratio 70% or more, less than 90%)	4 (weed kill ratio 70% or more, less than 90%)	5 (weed kill ratio 90% or more, (practically complete withering))	3 (weed kill ratio 40% or more, less than 70%)	5 (weed kill ratio 90% or more, (practically complete withering))	0 (weed kill ratio 5% or less (practically no effect))	3 (weed kill ratio 40% or more, less than 70%)	5 (weed kill ratio 90% or more, (practically complete withering))	5 (weed kill ratio 90% or more, (practically complete withering))	5 (weed kill ratio 90% or more, (practically complete withering))	4 (weed kill ratio 70% or more, less than 90%)	5 (weed kill ratio 90% or more, (practically complete withering))	5 (weed kill ratio 90% or more, (practically complete withering))	f (beet) effect on crop grade [17]: 3 (weed kill ratio 40% or more, less than 70%); M (fig-leafed goosefoot) weedkilling efficacy grade [22]: 4 (weed kill ratio 70% or more, less than 90%); B (bulrush) weedkilling efficacy grade [23]: 5 (weed kill ratio 90% or more, (practically complete withering)); O (catchweed) weedkilling efficacy grade [24]: 4 (weed kill ratio 70% or more, less than 90%); C (oval-leafed pondweed) weedkilling efficacy grade [25]: 5 (weed kill ratio 90% or more, (practically complete withering)); e (wheat) effect on crop grade [26]: 5 (weed kill ratio 90% or more, (practically complete withering)); P (birds-eye speedwell) weedkilling efficacy grade [27]: 3 (weed kill ratio 40% or more, less than 70%); b (directly sown rice) effect on crop grade [28]: 5 (weed kill ratio 90% or more, (practically complete withering)); L (redroot pigweed) weedkilling efficacy grade [29]: 5 (weed kill ratio 90% or more, (practically complete withering)); c (corn) effect on crop grade [30]: 3 (weed kill ratio 40% or more, less than 70%); K (Indian mallow) weedkilling efficacy grade [31]: 4 (weed kill ratio 70% or more, less than 90%); C (oval-leafed pondweed) weedkilling efficacy grade [32]: 5 (weed kill ratio 90% or more, (practically complete withering)); A (barnyard grass) weedkilling efficacy grade [33]: 4 (weed kill ratio 70% or more, less than 90%); E (green foxtail) weedkilling efficacy grade [34]: 5 (weed kill ratio 90% or more, (practically complete withering)); E (green foxtail) weedkilling efficacy grade [35]: 5 (weed kill ratio 90% or more, (practically complete withering)); d (soybean) effect on crop grade [36]: 0 (weed kill ratio 5% or less (practically no effect))
CC1=C(c2ccccc2)C(=O)N(C(C)(C)C(=O)Nc2ccnc(F)c2)CO1 [B-4-02]	5 (weed kill ratio 90% or more, (practically complete withering))	5 (weed kill ratio 90% or more, (practically complete withering))	0 (weed kill ratio 5% or less (practically no effect))	5 (weed kill ratio 90% or more, (practically complete withering))	4 (weed kill ratio 70% or more, less than 90%)	4 (weed kill ratio 70% or more, less than 90%)	4 (weed kill ratio 70% or more, less than 90%)	3 (weed kill ratio 40% or more, less than 70%)	4 (weed kill ratio 70% or more, less than 90%)	5 (weed kill ratio 90% or more, (practically complete withering))	4 (weed kill ratio 70% or more, less than 90%)	5 (weed kill ratio 90% or more, (practically complete withering))	3 (weed kill ratio 40% or more, less than 70%)	3 (weed kill ratio 40% or more, less than 70%)	5 (weed kill ratio 90% or more, (practically complete withering))	5 (weed kill ratio 90% or more, (practically complete withering))	5 (weed kill ratio 90% or more, (practically complete withering))	4 (weed kill ratio 70% or more, less than 90%)	5 (weed kill ratio 90% or more, (practically complete withering))	5 (weed kill ratio 90% or more, (practically complete withering))	M (fig-leafed goosefoot) weedkilling efficacy grade [22]: 5 (weed kill ratio 90% or more, (practically complete withering)); B (bulrush) weedkilling efficacy grade [23]: 5 (weed kill ratio 90% or more, (practically complete withering)); O (catchweed) weedkilling efficacy grade [24]: 5 (weed kill ratio 90% or more, (practically complete withering)); C (oval-leafed pondweed) weedkilling efficacy grade [25]: 5 (weed kill ratio 90% or more, (practically complete withering)); e (wheat) effect on crop grade [26]: 1 (weed kill ratio 5% or more, less than 20%); P (birds-eye speedwell) weedkilling efficacy grade [27]: 5 (weed kill ratio 90% or more, (practically complete withering)); b (directly sown rice) effect on crop grade [28]: 5 (weed kill ratio 90% or more, (practically complete withering)); L (redroot pigweed) weedkilling efficacy grade [29]: 5 (weed kill ratio 90% or more, (practically complete withering)); c (corn) effect on crop grade [30]: 4 (weed kill ratio 70% or more, less than 90%); K (Indian mallow) weedkilling efficacy grade [31]: 3 (weed kill ratio 40% or more, less than 70%); C (oval-leafed pondweed) weedkilling efficacy grade [32]: 4 (weed kill ratio 70% or more, less than 90%); A (barnyard grass) weedkilling efficacy grade [33]: 3 (weed kill ratio 40% or more, less than 70%); E (green foxtail) weedkilling efficacy grade [34]: 5 (weed kill ratio 90% or more, (practically complete withering)); E (green foxtail) weedkilling efficacy grade [35]: 5 (weed kill ratio 90% or more, (practically complete withering)); d (soybean) effect on crop grade [36]: 1 (weed kill ratio 5% or more, less than 20%); P (birds-eye speedwell) weedkilling efficacy grade [37]: 5 (weed kill ratio 90% or more, (practically complete withering))
